# Measurements as given in publication doi:10.1101/2025.04.14.25325787v4 (medrxiv, 2025).
# Target: EGFR kinase domain (Homo sapiens, UniProt P00533)
# Experiment: SPR
# Type: binding
# Chain of EGFR kinase domain (P00533 704-1016): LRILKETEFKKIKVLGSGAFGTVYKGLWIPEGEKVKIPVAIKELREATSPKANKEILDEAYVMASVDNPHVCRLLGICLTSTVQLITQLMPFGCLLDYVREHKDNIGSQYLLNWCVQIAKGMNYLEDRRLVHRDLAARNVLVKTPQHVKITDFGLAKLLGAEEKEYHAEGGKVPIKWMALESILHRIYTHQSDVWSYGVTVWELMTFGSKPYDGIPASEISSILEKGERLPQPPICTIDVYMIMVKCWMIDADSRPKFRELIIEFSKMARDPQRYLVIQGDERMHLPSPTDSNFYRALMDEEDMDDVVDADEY
compound,measurement,value
"COc1ccc(CCn2c(=O)c3cc4c(cc3c3ccccc32)OCO4)cc1 [Z5, ZYH005]",Kd,19.6 µM
